The record followed here is patent US11318116B2, “Stable amorphous form of sacubitril valsartan trisodium complex and processes for preparation thereof” (Laurus Labs Limited, priority 2016, dated 2022).

The data set in a line: Stability study for amorphous trisodium sacubitril valsartan complex (HPLC purity and PXRD on storage). It counts as physicochemical. The text has this: In another embodiment, the present invention provides a method of packing amorphous form of sacubitril valsartan trisodium complex, comprising: placing amorphous form of sacubitril valsartan trisodium complex in LDPE bag under nitrogen atmosphere; placing the product containing Low-density polyethylene (LDPE) bag in a second LDPE bag under nitrogen atmosphere; keeping the silica gel packet between two LDPE bags and sealing; placing the second sealed bag in a triple laminated bag and sealing.
The X-Ray powder diffraction can be measured using PANalytical X'per^3pro X-ray powder Diffractometer equipped with a Cu-anode ([λ]=1.54 Angstrom), X-ray source operated at 45 kV, 40 mA. Two-theta calibration is performed using an NIST SRM 640c Si standard. The sample was analyzed using the following instrument parameters: measuring range=3-45° 20; step size=0.01°; and Time per step=23 sec.
In another embodiment, the present invention provides Sacubitril sodium and amorphous form of sacubitril-valsartan trisodium complex obtained by the above process, as analyzed using high performance liquid chromatography (“HPLC”) with the conditions are tabulated below:
The amorphous form of trisodium sacubitril valsartan complex is packed in LDPE bag under nitrogen atmosphere and placed in another LDPE bag, filled with nitrogen and kept silica gel packet between the bags, tied with strip seal. Kept the bag in triple laminated sunlight barrier bag and sealed with heat sealer. The stability of the samples was tested at 25±2° C./60±5% RH and 40±2° C./75±5% RH respectively.

The mark [1] stands for this setting: 25 ± 2° C./60 ± 5% RH, 1st month.
[2] abbreviates: 25 ± 2° C./60 ± 5% RH, 3rd month.
The mark [3] stands for this setting: 25 ± 2° C./60 ± 5% RH, 6th month.
The mark [4] stands for this setting: 40 ± 2° C./75 ± 5% RH, 1st month.
[5] abbreviates: 40 ± 2° C./75 ± 5% RH, 3rd month.
The mark [6] stands for this setting: 40 ± 2° C./75 ± 5% RH, 6th month.

sacubitril valsartan trisodium complex: the “HPLC purity (%)” value reads like this: under setting [1], 99.95%; under setting [2], 99.94%; under setting [3], 99.93%; (25 ± 2° C./60 ± 5% RH, Initial) 99.94%; under setting [4], 99.95%; under setting [5], 99.93%. For the same substance, the “HPLC purity (%)” value was 99.90% under setting [6] and 99.94% (40 ± 2° C./75 ± 5% RH, Initial). Besides, the PXRD result was “Amorphous” under setting [1]; “Amorphous” under setting [2]; “Amorphous” under setting [3]; “Amorphous” (25 ± 2° C./60 ± 5% RH, Initial); “Amorphous” under setting [4]; “Amorphous” under setting [5]. In addition, the PXRD result runs as follows: under setting [6], “Amorphous”; (40 ± 2° C./75 ± 5% RH, Initial) “Amorphous”. Besides, for the setting “packed in LDPE/triple laminated bags, up to 6 months at real and accelerated conditions, up to about 40° C., about 25% to about 75% RH”, the “solid form on storage” value is given as “the amorphous character was retained”. Also, for the setting “stored at 25±2° C./60±5% RH for 6 months and at 40±2° C./75±5% RH for 6 months”, the “stability at real time and accelerated conditions” value is listed as “stable”.
